Assay results reported in patent publication US20060217447A1, “Wood preservative formulations comprising dichlorophen” (priority 2005, published 2006).
Where “and” joins values, the source holds several entries; their conditions need not be identical. Identical values can stand only once.

Test system: decay organisms
Test: Soil contact veneer exposure test: dip-treated Scots pine sapwood veneers in damp compost, pulled by hand weekly until failure
Settings: for Half life for fungicide at 2% ai / Half life for fungicide at 2% active ingredient (ai): 2% single biocide; for Half life for fungicide at 2% active ingredient (ai): Example 3; for average time for failure to occur, Quat Only: 0.36% active quaternary ammonium compound in deionised water
Description: The present invention also provides a simple exposure test for evaluating the wood preserving abilities of candidate ingredients or compositions. This exposure test is based on the premise that small dimension timber test specimens tend to fail more quickly than larger ones in soil contact situations.
It is preferable that the thickness of the veneers be greater than 0.1 mm, as veneers of lesser thickness can often be pulled apart by hand without undergoing exposure to decay organisms. Veneers which are thicker than 0.4 may take an excessive amount of time to fail the exposure test. In one embodiment, the thickness of the veneers is about 0.2 mm and the wood is the sapwood of the Scots pine (Pinus sylvestris). Other woods and thicknesses can be used. […] An example of convenient width and length dimensions are 15×50 mm. However, width and length are not critical provided they are kept consistent within a test, although very large or small length or width dimensions may be difficult to handle.
Accordingly, the test of the present invention comprises testing the integrity of a veneer after exposure to a decay-inducing environment. In one embodiment, this environment is damp compost in which decay organisms are present and water is present at just above the water holding capacity of the compost. If desired, other media can be used, and the test can be conducted at water contents which are below, at, or above the water-holding capacity of the media.
In general, the integrity of the veneer is inversely related to the length of exposure to the decay promoting environment. The integrity of the veneer can be tested by applying a force to the veneer and noting whether or not the veneer breaks. Thus, if wood preservative agents are applied to the veneers, these veneers would be expected to withstand longer exposure to the environment without breaking compared to control veneers without breaking.
The force applied to the veneers is preferably a force which pulls the two ends in opposite directions. The force can be applied by the use of an instrument or manually. If there is significant decay the veneer will break, generally near the junction between the portion submerged in the decay accelerating medium and the portion exposed to air. If the force is applied manually, it is preferable that the same individual conduct the test at the various exposure time points.
The veneers were cut such that both late wood and early wood were present in each veneer. The following biocides were tested: dichlorophen, fenarimol, imazalil sulfate, and PHMB.
Test solutions were prepared and sets of veneers were dip treated such that there were 6 replicate veneers for each treatment under investigation. Additionally six veneers were dip treated in deionised water to act as water controls. […] Plastic containers (approximately 350×220 mm by at least 60 mm high) were part filled with John Innes Number 2 potting compost at a little above its water holding capacity. The veneers for a particular test were placed in six rows within a container such that approximately half the veneer was below the compost and half above. The veneers were placed in the compost such than those given a particular treatment were distributed throughout the container and were not grouped together. The containers, compost and veneers were weighed then incubated at about 30° C. and near 100% relative humidity in an incubator. Each week during the test the assembly was reweighed and deionised water added to bring it back to its original mass. After 3 weeks each veneer was examined in turn. It was held between the fingers at each end and pulled to see if it could be broken. If it could be pulled apart a failure was recorded. If the veneer was sound, this was recorded and the veneer was returned to its original position. After a further one week incubation all sound veneers were assessed again as described above, with the same person conducting the assessments.

[1] = Example 1, single biocide at 0.8% in treatment solution, 6 replicate veneers
[2] = Example 8, solutions in IMS (alcohol), single biocide at 0.8%
[3] = Example 8, solutions in IMS (alcohol), single biocide at 1.6%
[4] = Example 5, solutions in IMS (alcohol)
[5] = Example 4, solutions in acetone
[6] = Example 7, solutions in acetone, single biocide at 0.8%
[7] = Example 7, solutions in acetone, single biocide at 1.6%
[8] = Example 6, solutions in IMS (alcohol), single biocide at 0.8%
[9] = Example 6, solutions in IMS (alcohol), single biocide at 1.6%

## Poly(hexamethylenebiguanide) hydrochloride [PHMB]
[1]
  average time for failure to occur: 4.8 weeks
[2]
  Calculated half life: 5.00 weeks
[3]
  Calculated half life: 5.50 weeks

## alkyl dimethyl benzyl ammonium chloride [BAC]
[4]
  Half life for fungicide at 2% ai: 5.00 weeks
[2]
  Calculated half life: 5.00 weeks
[3]
  Calculated half life: 5.00 weeks

## O=C(Nc1ccccc1)c1ccccc1O [Salicylanilide, 2-hydroxy-N-phenylbenzamide]
Solutions in IMS (alcohol)
  Half life for fungicide at 2% active ingredient (ai): 14.00 weeks
[2]
  Calculated half life: 4.83 weeks
[3]
  Calculated half life: 5.83 weeks

## CCCC1COC(Cn2cncn2)(c2ccc(Cl)cc2Cl)O1 (stereo not drawn) [Propiconazole, 1-[[2-(2,4-dichlorophenyl)-4-propyl-1,3-dioxolan-2-yl]=methyl]-1H-1,2,4-triazole]
[5]
  Half life for fungicide at 2% ai: 6.33 weeks
[6]
  Calculated half life: 5.67 weeks
[7]
  Calculated half life: 6.00 weeks

## N#Cc1c(Cl)c(Cl)c(Cl)c(C#N)c1Cl [Chlorothalonil, 2,4,5,6-tetrachloro-1,3-benzenedicarbonitrile]
[6]
  Calculated half life: 9.33 weeks
[7]
  Calculated half life: 12.33 weeks

## CCCCCCCCCC[N+](C)(C)CCCCCCCCCC.[Cl-] [DDAC, didecyl dimethyl ammonium chloride]
Example 2
  average time for failure to occur, Quat Only: 4.2 weeks
[4]
  Half life for fungicide at 2% ai: 5.50 weeks
[8]
  Calculated half life: 5.17 weeks
[9]
  Calculated half life: 6.67 weeks

## CCCCCCCCCCCCN(CCCN)CCCN [Triameen, N,N-bis(3-aminopropyl) dodecylamine]
[4]
  Half life for fungicide at 2% ai: 5.50 weeks

## CC(C1CC1)C(O)(Cn1cncn1)c1ccc(Cl)cc1 (stereo not drawn) [Cyproconazole, α-(4-chlorophenyl)-α-(1-cyclopropylethyl)-=1H-1,2,4-triazol-1-ethanol]
Solutions in IMS (alcohol)
  Half life for fungicide at 2% active ingredient (ai): 6.67 weeks
[6]
  Calculated half life: 4.33 weeks
[7]
  Calculated half life: 4.50 weeks

## N,N-didecyl-N-methyl-poly(oxyethyl) ammonium propionate [Bardap 26]
Example 2
  average time for failure to occur, Quat Only: 5.0 weeks
[8]
  Calculated half life: 5.17 weeks
[9]
  Calculated half life: 6.00 weeks

## 1H-imidazole, 1-(2-(2,4-dichlorphenyl)-2-(2-propenyloxy)ethyl)-,sulfate [Imazalil Sulphate]
Example 1, single biocide at 0.4% in treatment solution
  average time for failure to occur: 5.2 weeks
[4]
  Half life for fungicide at 2% ai: 7.83 weeks
[8]
  Calculated half life: 7.00 weeks
[9]
  Calculated half life: 8.00 weeks

## CCCCCCCCCCCCCN1CC(C)OC(C)C1 (stereo not drawn) [Tridemorph, 4-alkyl-2,6-dimethylmorpholine]
Solutions in IMS (alcohol)
  Half life for fungicide at 2% active ingredient (ai): 5.83 weeks

## CCCCCCCCn1sc(Cl)c(Cl)c1=O [RH 287, 4,5-dichloro-2-n-octyl-3(2H)-isothiazolone]
[6]
  Calculated half life: 10.00 weeks
[7]
  Calculated half life: 16.83 weeks

## COC(=O)N(OC)c1ccccc1COc1ccn(-c2ccc(Cl)cc2)n1 [Pyraclostrobin, methyl N-{2-[1-(4-chlorophenyl)-1H-pyrazol-3-yloxymethyl]phenyl}(N-methoxy)carbamate]
[4]
  Half life for fungicide at 2% ai: 5.67 weeks

## OB(O)O [Boric acid]
[2]
  Calculated half life: 4.17 weeks
[3]
  Calculated half life: 4.50 weeks

## CC(Cc1ccc(C(C)(C)C)cc1)CN1C[C@@H](C)O[C@@H](C)C1 (stereo partly drawn) [Fenpropimorph, cis-4-[3-[4-(1,1-dimethylethyl)phenyl]-2-methylpropyl]-=2,6-dimethylmorpholine]
Solutions in IMS (alcohol)
  Half life for fungicide at 2% active ingredient (ai): 6.17 weeks
[6]
  Calculated half life: 3.67 weeks
[7]
  Calculated half life: 4.33 weeks

## Oc1ccc(Cl)cc1Cc1cc(Cl)ccc1O [Dichlorophen, 2,2′-methylenebis [4-chlorophenol]]
Example 1, 0.6% dichlorophen alone
  average time for failure to occur: 9.5 weeks
Example 2, 0.60% dichlorophen, no quat
  average time for failure to occur: 5.7 weeks
Solutions in IMS (alcohol)
  Half life for fungicide at 2% active ingredient (ai): 15.67 weeks
[5]
  Half life for fungicide at 2% ai: 18.17 weeks
[4]
  Half life for fungicide at 2% ai: 17.00 weeks
[8]
  Calculated half life: 11.33 weeks
[9]
  Calculated half life: 14.50 weeks
[6]
  Calculated half life: 8.67 weeks
[7]
  Calculated half life: 10.83 weeks
[2]
  Calculated half life: 7.83 weeks
[3]
  Calculated half life: 11.67 weeks

## OC(c1ccc(Cl)cc1)(c1cncnc1)c1ccccc1Cl (racemic) [Fenarimol, (±)-2,4′-dichloro-α-(pyrimidin-5-yl) benzhydryl alcohol]
[1]
  average time for failure to occur: ~7.2 weeks and 7.2 weeks
Solutions in IMS (alcohol)
  Half life for fungicide at 2% active ingredient (ai): 7.33 weeks
